Test results published in article PMC5513091, “A novel Alzheimer’s disease drug candidate targeting inflammation and fatty acid metabolism” (Alzheimer's Research & Therapy, 2017).

Columns and labels:
APPswe/PS1ΔE9 mice = system: APPswe/PS1ΔE9 mice; parameters: method as in PMID 27149904; settings: old APPswe/PS1ΔE9 mice fed from an early age, preventive strategy; cited from earlier work
[1] = system: HT22 cells expressing the brain-derived neurotrophic factor (BDNF) receptor transmembrane receptor kinase B; experiment: BDNF-like activity (rescue from serum starvation); type: cell-based; settings: Mus musculus, HT-22, read-out: Half-maximal effective concentration, BDNF-like activity
Procedure: The various phenotypic screening assays were conducted as previously described. Briefly, HT-22, primary cortical neurons, or MC65 was plated and exposed to the different environmental stresses. Cells were treated with varying concentrations of CAD-31, and half-maximal effective concentration (EC50) was determined on the basis of cell viability.
• An assay that mimics the dramatic loss of neurotrophic support in the old brain is the trophic factor withdrawal assay. Primary embryonic day 18 cortical cells are plated at low density in serum-free medium. At low density, the cells die within 2 days; they can be rescued by combinations of neurotrophic growth factors, but not by one alone ([19] and unpublished data). […] BDNF is a molecule that is also involved in promoting memory and neurogenesis and is reduced in the brain with age and in AD, as well as in other neurological disorders. BDNF has long been considered a drug target for AD [23]. […] A reduction in GSH is a common denominator of old age and essentially all chronic central nervous system (CNS) diseases. J147 and CAD-31 both effectively reduce oxidative stress, with EC50 of 6 nM and 20 nM, respectively. • CAD-31 also prevents loss of energy metabolism that leads to neuron cell death in an in vitro ischemia model. […]

CYP 2D6 = CYP 2D6 (Homo sapiens, UniProt P10635); experiment: CYP inhibition; type: in vitro ADME
Sequence of CYP 2D6 (P10635 whole entry): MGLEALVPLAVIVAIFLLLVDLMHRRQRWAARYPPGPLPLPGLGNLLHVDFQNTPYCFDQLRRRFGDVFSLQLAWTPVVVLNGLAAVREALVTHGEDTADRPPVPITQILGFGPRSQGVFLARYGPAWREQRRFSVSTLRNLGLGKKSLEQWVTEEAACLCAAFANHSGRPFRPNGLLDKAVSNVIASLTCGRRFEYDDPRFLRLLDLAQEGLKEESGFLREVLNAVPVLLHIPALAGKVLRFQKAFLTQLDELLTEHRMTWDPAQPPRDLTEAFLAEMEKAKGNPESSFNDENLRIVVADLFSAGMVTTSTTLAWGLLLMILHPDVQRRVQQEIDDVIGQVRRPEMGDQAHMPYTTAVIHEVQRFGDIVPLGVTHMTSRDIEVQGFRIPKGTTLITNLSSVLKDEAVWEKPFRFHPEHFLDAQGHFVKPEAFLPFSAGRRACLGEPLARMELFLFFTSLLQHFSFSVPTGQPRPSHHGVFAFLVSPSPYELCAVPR

CYP 3A4 = CYP 3A4 (Homo sapiens, UniProt P08684); experiment: CYP inhibition; type: in vitro ADME
Sequence of CYP 3A4 (P08684 whole entry): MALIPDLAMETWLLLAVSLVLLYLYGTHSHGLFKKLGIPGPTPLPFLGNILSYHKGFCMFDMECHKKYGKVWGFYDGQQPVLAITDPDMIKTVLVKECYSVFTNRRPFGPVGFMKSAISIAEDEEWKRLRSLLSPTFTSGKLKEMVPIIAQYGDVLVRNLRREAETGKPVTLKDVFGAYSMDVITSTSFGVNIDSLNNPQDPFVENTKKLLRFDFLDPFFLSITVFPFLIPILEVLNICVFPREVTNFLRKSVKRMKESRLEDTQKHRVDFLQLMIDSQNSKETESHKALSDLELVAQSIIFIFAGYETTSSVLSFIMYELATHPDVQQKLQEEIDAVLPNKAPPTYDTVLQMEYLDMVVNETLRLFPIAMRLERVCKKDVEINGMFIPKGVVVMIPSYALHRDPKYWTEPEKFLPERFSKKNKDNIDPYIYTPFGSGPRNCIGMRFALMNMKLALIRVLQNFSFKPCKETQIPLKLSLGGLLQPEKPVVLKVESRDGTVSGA

protein kinases = experiment: Protein Kinase Screen; type: binding
Source text: Before undertaking animal experiments, it is important to determine if a new drug candidate has a chance for further clinical development by determining its pharmacological properties of bioavailability and brain penetrance as well as predicted safety.

[2] = Body weights and food consumption during feeding study; type: in vivo, mice; settings: 200 ppm in diet for 3 months, measured weekly; data not shown
Procedure: The APPswe/PS1∆E9-transgenic mice were characterized previously. Line 85 mice carry two transgenes, the mouse/human chimeric APPswe, linked to Swedish familial AD and human PS1∆E9. At 10 months of age, female transgenic mice were fed a defined diet (Harlan Teklad; Envigo, Indianapolis, IN, USA) with and without CAD-31 (200 ppm, approximately 10 mg/kg/day). Treatment continued for 3 months, followed by behavior testing and tissue harvesting.

Cc1ccc(N(/N=C/c2cccc(OC(F)(F)F)c2)C(=O)C(F)(F)F)c(C)c1 [CAD-31]
division of NPCs in the subventricular zone (APPswe/PS1ΔE9 mice): stimulates the division of NPCs in the subventricular zone
EC50 [1]: 0.095 µM
EC50 at 10 µM (CYP 2D6): > 10 µM
EC50 at 10 µM (CYP 3A4): > 10 µM
interaction with known protein kinases (protein kinases; 10 μM): did not interact
EC50 (protein kinases; all kinases): > 10 µM
EC50 at 10 µM (Micronucleus assay): > 10 µM
activity in the micronucleus assay (Micronucleus assay; 10 μM): showed no sign of acute toxicity or activity
body weights and food consumption [2]: no significant differences between the groups
